Reference: PubChem BioAssay (NCI)
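Exposure lasted 48 hours, with cells grown in 96-well plates and compounds tested at five concentrations. GI50 marks 50% less growth. TGI: concentration producing complete growth inhibition.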

How the values were obtained:
Test in all cases: growth of human tumour cells (NCI), 48 h
M14 melanoma = tested on: M14 melanoma
A498 renal = tested on: A498 renal
A549 NSCLC = tested on: A549 NSCLC
UO-31 renal = tested on: UO-31 renal
NCI-H522 lung = tested on: NCI-H522 lung
CCRF-CEM leukemia = tested on: CCRF-CEM leukemia
NCI-H226 lung = tested on: NCI-H226 lung
SK-MEL-5 melanoma = tested on: SK-MEL-5 melanoma
SNB-75 CNS = tested on: SNB-75 CNS
HOP-92 NSCLC = tested on: HOP-92 NSCLC
SN12C renal = tested on: SN12C renal
OVCAR-8 ovarian = tested on: OVCAR-8 ovarian
KM12 colon = tested on: KM12 colon
OVCAR-5 ovarian = tested on: OVCAR-5 ovarian
EKVX NSCLC = tested on: EKVX NSCLC
MCF7 breast = tested on: MCF7 breast
SK-MEL-28 melanoma = tested on: SK-MEL-28 melanoma
HCC-2998 colon = tested on: HCC-2998 colon
HOP-62 NSCLC = tested on: HOP-62 NSCLC
UACC-257 melanoma = tested on: UACC-257 melanoma
HT29 colon = tested on: HT29 colon
COLO 205 colon = tested on: COLO 205 colon
RPMI-8226 leukemia = tested on: RPMI-8226 leukemia
SNB-19 CNS = tested on: SNB-19 CNS
SF-268 CNS = tested on: SF-268 CNS
SK-OV-3 ovarian = tested on: SK-OV-3 ovarian
LOX IMVI melanoma = tested on: LOX IMVI melanoma
OVCAR-3 ovarian = tested on: OVCAR-3 ovarian
OVCAR-4 ovarian = tested on: OVCAR-4 ovarian
SF-295 CNS = tested on: SF-295 CNS
MDA-MB-231 breast = tested on: MDA-MB-231 breast
MALME-3M melanoma = tested on: MALME-3M melanoma
PC-3 prostate = tested on: PC-3 prostate
U251 CNS = tested on: U251 CNS
HS 578T breast = tested on: HS 578T breast
TK-10 renal = tested on: TK-10 renal
UACC-62 melanoma = tested on: UACC-62 melanoma
SW-620 colon = tested on: SW-620 colon
MOLT-4 leukemia = tested on: MOLT-4 leukemia
IGROV1 ovarian = tested on: IGROV1 ovarian
NCI-H23 lung = tested on: NCI-H23 lung
ACHN renal = tested on: ACHN renal
NCI-H460 lung = tested on: NCI-H460 lung
HCT-116 colon = tested on: HCT-116 colon
DU-145 prostate = tested on: DU-145 prostate
NCI/ADR-RES ovarian = tested on: NCI/ADR-RES ovarian
CAKI-1 renal = tested on: CAKI-1 renal
K-562 leukemia = tested on: K-562 leukemia
MDA-MB-435 = tested on: MDA-MB-435
786-0 renal = tested on: 786-0 renal
RXF 393 renal = tested on: RXF 393 renal
T-47D breast = tested on: T-47D breast
HL-60(TB) leukemia = tested on: HL-60(TB) leukemia
SF-539 CNS = tested on: SF-539 CNS
BT-549 breast = tested on: BT-549 breast
HCT-15 colon = tested on: HCT-15 colon

Work on `CN1C(=O)C23CC4(C56CC78SSC(CO)(C(=O)N7C5Nc5ccccc56)N(C)C8=O)c5ccccc5NC4N2C(=O)C1(CO)SS3` (configuration not stated) yielded a GI50 (M14 melanoma) of 71.7 nM, a TGI (M14 melanoma) of 205 nM and a GI50 (A498 renal) of 74.8 nM. It also gave a TGI (A498 renal) of 155 nM, a GI50 (A549 NSCLC) of 48 nM and a TGI (A549 NSCLC) of 283 nM. The GI50 (UO-31 renal) was 111 nM, the TGI (UO-31 renal) was 342 nM and the GI50 (NCI-H522 lung) was 115 nM. For the same compound, the TGI (NCI-H522 lung) was 329 nM, the GI50 (CCRF-CEM leukemia) was 21.9 nM and the TGI (CCRF-CEM leukemia) was 3040 nM. The GI50 (NCI-H226 lung) was 130 nM, the TGI (NCI-H226 lung) was 359 nM and the GI50 (SK-MEL-5 melanoma) was 39.3 nM. The TGI (SK-MEL-5 melanoma) was 112 nM, the GI50 (SNB-75 CNS) was 99.3 nM and the TGI (SNB-75 CNS) was 289 nM. It also gave a GI50 (HOP-92 NSCLC) of 103 nM, a TGI (HOP-92 NSCLC) of 461 nM and a GI50 (SN12C renal) of 124 nM. It also gave a TGI (SN12C renal) of 673 nM, a GI50 (OVCAR-8 ovarian) of 23 nM and a TGI (OVCAR-8 ovarian) of 185 nM. It also gave a GI50 (KM12 colon) of 54.4 nM, a TGI (KM12 colon) of 220 nM and a GI50 (OVCAR-5 ovarian) of 81.3 nM. It also gave a TGI (OVCAR-5 ovarian) of 294 nM, a GI50 (EKVX NSCLC) of 89.2 nM and a TGI (EKVX NSCLC) of 526 nM. The GI50 (MCF7 breast) was 14.5 nM, the TGI (MCF7 breast) was 122 nM and the GI50 (SK-MEL-28 melanoma) was 23.5 nM. The TGI (SK-MEL-28 melanoma) was 69.5 nM, the GI50 (HCC-2998 colon) was 46 nM and the TGI (HCC-2998 colon) was 132 nM. The GI50 (HOP-62 NSCLC) was 124 nM, the TGI (HOP-62 NSCLC) was 368 nM and the GI50 (UACC-257 melanoma) was 37.2 nM. For the same compound, the TGI (UACC-257 melanoma) was 113 nM, the GI50 (HT29 colon) was 17.6 nM and the TGI (HT29 colon) was 162 nM. For the same compound, the GI50 (COLO 205 colon) was 19.5 nM, the TGI (COLO 205 colon) was 76 nM and the GI50 (RPMI-8226 leukemia) was 56.3 nM. For the same compound, the TGI (RPMI-8226 leukemia) was 3160 nM, the GI50 (SNB-19 CNS) was 192 nM and the TGI (SNB-19 CNS) was 643 nM. It also gave a GI50 (SF-268 CNS) of 80.7 nM, a TGI (SF-268 CNS) of 351 nM and a GI50 (SK-OV-3 ovarian) of 103 nM. It also gave a TGI (SK-OV-3 ovarian) of 291 nM, a GI50 (LOX IMVI melanoma) of 52.1 nM and a TGI (LOX IMVI melanoma) of 243 nM. For the same compound, the GI50 (OVCAR-3 ovarian) was 50.7 nM, the TGI (OVCAR-3 ovarian) was 218 nM and the GI50 (OVCAR-4 ovarian) was 57.6 nM. It also gave a TGI (OVCAR-4 ovarian) of 237 nM, a GI50 (SF-295 CNS) of 49.7 nM and a TGI (SF-295 CNS) of 135 nM. For the same compound, the GI50 (MDA-MB-231 breast) was 130 nM, the TGI (MDA-MB-231 breast) was 653 nM and the GI50 (MALME-3M melanoma) was 17.7 nM. For the same compound, the TGI (MALME-3M melanoma) was 74.5 nM, the GI50 (PC-3 prostate) was 38.8 nM and the TGI (PC-3 prostate) was 537 nM. For the same compound, the GI50 (U251 CNS) was 46.4 nM, the TGI (U251 CNS) was 193 nM and the GI50 (HS 578T breast) was 52.9 nM. The TGI (HS 578T breast) was 191 nM, the GI50 (TK-10 renal) was 119 nM and the TGI (TK-10 renal) was 359 nM. The GI50 (UACC-62 melanoma) was 62.2 nM, the TGI (UACC-62 melanoma) was 153 nM and the GI50 (SW-620 colon) was 37.2 nM. The TGI (SW-620 colon) was 167 nM, the GI50 (MOLT-4 leukemia) was 34.3 nM and the TGI (MOLT-4 leukemia) was 3500 nM. For the same compound, the GI50 (IGROV1 ovarian) was 98.7 nM, the TGI (IGROV1 ovarian) was 279 nM and the GI50 (NCI-H23 lung) was < 31.5 nM. The TGI (NCI-H23 lung) was 76.4 nM, the GI50 (ACHN renal) was 71.5 nM and the TGI (ACHN renal) was 443 nM. It also gave a GI50 (NCI-H460 lung) of 52.3 nM, a TGI (NCI-H460 lung) of 191 nM and a GI50 (HCT-116 colon) of 32.9 nM. It also gave a TGI (HCT-116 colon) of 313 nM, a GI50 (DU-145 prostate) of 29.6 nM and a TGI (DU-145 prostate) of 195 nM. It also gave a GI50 (NCI/ADR-RES ovarian) of 48.2 nM, a TGI (NCI/ADR-RES ovarian) of 189 nM and a GI50 (CAKI-1 renal) of 56.1 nM. The TGI (CAKI-1 renal) was 290 nM, the GI50 (K-562 leukemia) was 524 nM and the TGI (K-562 leukemia) was 3640 nM. The GI50 (MDA-MB-435) was 68.5 nM, the TGI (MDA-MB-435) was 146 nM and the GI50 (786-0 renal) was 78.6 nM. It also gave a TGI (786-0 renal) of 172 nM, a GI50 (RXF 393 renal) of 12.9 nM and a TGI (RXF 393 renal) of 42 nM. It also gave a GI50 (T-47D breast) of 21.3 nM, a TGI (T-47D breast) of 135 nM and a GI50 (HL-60(TB) leukemia) of 85.3 nM. For the same compound, the TGI (HL-60(TB) leukemia) was 50000 nM, the GI50 (SF-539 CNS) was 29.1 nM and the TGI (SF-539 CNS) was 64.9 nM. It also gave a GI50 (BT-549 breast) of 106 nM, a TGI (BT-549 breast) of 347 nM and a GI50 (HCT-15 colon) of 35.3 nM. The TGI (HCT-15 colon) was 411 nM.
